Among the data in patent US12208146B2, “Reconstituted HDL nanoparticles for delivery of radioactive agents and uses thereof” (UNIVERSITY OF NORTH TEXAS HEALTH SCIENCE CENTER, priority 2018, dated 2025) are total uptake and incorporation into cells values, retold here.

Each structure is given as a SMILES string.

The test system of the assay is PC3 cells. Kind of assay: Cell uptake experiments with and without SR-B1 blocking by unlabeled rHDL. Format: cell-based. The following applies: for total uptake: PC-3 cells. As for the experimental part:
PC3 cells were harvested and diluted in fresh medium (1×10^5 cells/well, 0.5 mL) and then seeded in 24-well tissue culture plates. After 24 h, the medium was removed, and the cells were incubated with 100 μL/well of phosphate buffered saline (PBS) and the following treatments per well: 2 kBq of ^99mTcO4−, and 30 μL of 1 μg/μL of ^99mTc-rHDL, ^99mTc-Liposome, and ^99mTc-HYNIC-DA for 45 min at 37° C. Then, cells were rinsed two times with 0.5 mL of ice-cold PBS. These two washes were combined and represent the ^99mTcO4^−, ^99mTc-rHDL, ^99mTc-Liposome, and ^99mTc-HYNIC-DA not bounded to cells. Cells were washed with 1 mL of PBS and later were incubated twice with 0.5 mL of Glycine-HCl (50 mM, pH 2.8). The Glycine-HCl washes were combined, these washed recovered the ^99mTcO4^−, ^99mTc-rHDL, ^99mTc-Liposome, and ^99mTc-HYNIC-DA adhered or bounded to cell membrane. Cells were washed with 1 mL of PBS, and finally were washed twice with 0.5 mL of 1.0 M NaOH (lysed cells) to recover the ^99mTcO4^−, ^99mTc-rHDL, ^99mTc-Liposome, and ^99mTc-HYNIC-DA internalized in the cytoplasm (washes were combined). Radioactivity was measured in the initial PBS, Glycine-HCl and NaOH combined washes using a NaI(Tl) detector (NML Inc. USA). The initial activity of each treatment was taken to represent 100% of activity. In parallel, the nonspecific binding was determined using 30 μL of 60 μg/μL of unlabeled rHDL, which blocked SR-B1 receptors on PC3 cells.

As to `[O]=[99Tc](=[O])(=[O])[O-]` [^99m TcO4^−], the total uptake reads like this: (with SR-B1 blocking) 2.9%; (without SR-B1 blocking) 2.8%. Besides, the incorporation into cells result (control groups, data not shown) is on record as “only marginal incorporation into cells”.
